Broadly, the EC50 is the concentration that produces a half-maximal response. By half-life is commonly meant how long it takes for the measured level to halve.

Data set [1] addresses T1, human GLP-1R (Homo sapiens, UniProt P43220).
T1 construct: expressed in transfected cells
In words: GLP-1 receptor efficacy assay (cAMP formation in HEK293 cells expressing human GLP-1R). As to conditions: Table 1a, HEK293 cells expressing hGLP-1R. It is filed as cell-based. Here is the method:
(§1) The 5′-end primers additionally encoded a near Kozak consensus sequence to ensure efficient translation.
(§2) 48 hr after transfection cells were seeded for limited dilution cloning and selected with 1 mg/ml G418 in the culture medium.
(§3) On the day of analysis, growth medium was removed and the cells washed once with 200 μl Tyrode buffer. […] The reaction was stopped by addition of 25 μl 0.5 M HCl and incubated on ice for 60 min. The cAMP content was estimated using the FlashPlate® cAMP kit from Perkin-Elmer.
(§4) Efficacy of the GluGLP-1 agonists were estimated by exposing cells expressing hGlucagonR and hGLP-1R to the listed acylated compounds at increasing concentrations and measuring the formed cAMP as described in Methods.
In general terms: Cyclic AMP is a second messenger, typically raised through Gs and lowered through Gi signalling.

Data set [2] has as its target T2, human Glucagon-R (Homo sapiens, UniProt P47871).
T2 construct: expressed in transfected cells
The experiment in a line: Glucagon receptor efficacy assay (cAMP formation in HEK293 cells expressing human Glucagon-R). It is filed as cell-based. The settings on record: Table 1a, HEK293 cells expressing hGlucagonR, read-out: EC50 (nM) GluR. How it is done:
as §1, §2, §3, §4

Data set [3] addresses T3, GluR (Homo sapiens, UniProt P47871).
T3 construct: Primary human hepatocyts provided by Lonza Walkersvill, Inc; host or cells: primary human hepatocytes
The experiment in a line: Hepatocyt cAMP formation (primary human hepatocyts). It counts as cell-based. How it is done: Primary human hepatocyts provided by Lonza Walkersvill, Inc. were carefully washed in TB buffer and incubated at 37° C. with peptides dissolved in TB buffer supplemented with 100 μM IBMX and 0.1% casein for 15 minutes. Prior to addition to the cells, the peptide dilutions were pre-warmed to 37° C. The reaction was stopped by addition of 25 μl of ice cold 0.5 M HCl, and the cells were incubated on ice for 60 min. The cAMP content in the wells was determined by adding 25 μl of the acid extracts from the wells to 75 μl sodium acetate buffer, pH 6.2, in 96-well microtiter “FlashPlates” coated with scintillant and anti-cAMP antibodies.
The amount of cAMP produced by the cells was calculated by extrapolation to a cAMP standard curve.
EC50 values were estimated by fitting the cAMP data to the below formula using Sigma Plot: […]

The nature of data set [4]: Body weight gain in high fat fed C57BL/6J mice (10 days). It counts as in vivo. The settings on record: short term high fat-fed C57BL/6J mice. How it is done:
C57Bl/6J male mice, 6 weeks old, were acclimatized in their new environment for 4 weeks with free access to high fat diet (HFD) (D12492, Research Diet Inc., New Brunswick, USA) and water. The animals were injected s.c. with 100 μl vehicle for a period of three days to acclimatize the animals to handling and injections, prior to initiation of peptide treatment. […] Throughout the study, body weights were recorded daily and used to administer the body weight-corrected doses of peptide. All animals were sacrificed on the same day by cervical dislocation.
C57Bl/6J male mice on high fat diet (HFD) were treated (b.i.d.; s.c.) (0.5 and 5 nmol/kg) or vehicle. Body weights were recorded daily and used to administer the body weight-corrected doses of peptide throughout the study. Data are shown as mean±SEM in FIG. 7.

Data set [5] can be described thus: Food intake in young lean and old obese C57BL/6J mice. It counts as in vivo. As to conditions: s.c. at t=0 h and t=12 h, p<0.05 versus vehicle. How it is done:
C57BL/6J mice were on a high fat diet for 11 days and C57BL/6J mice were on a high fat diet for 52 weeks.
3 days before study, the mice were transferred to individual cages and weighed. 4 days before study, they were acclimatized to handling and treatment by daily s.c. injections. On the day before the experiment food was removed at 20:00. […] Immediately after treatment (t=0), pre-weighed food were introduced to the mice and the cumulative food intake was measured by weighing the remaining food after t=1, 2, 4, 8, 12 and 24 hours. After weighing the food and the animals at t=24 h, the mice were sacrificed by cervical dislocation.
Immediately after treatment (t=0), pre-weighed food were introduced to the mice and the cumulative food intake was measured by weighing the remaining food after t=1, 2, 4, 8, 12 and 24 hours.

A short description of data set [6]: Pharmacokinetic screening in mouse plasma after subcutaneous administration. It counts as in vivo. As to conditions: sc, mice, 100 nmol/kg s.c., * = only two time points used for calculation. Here is the method:
Mice were dosed 100 nmol/kg subcutaneously (s.c.). The mice were sacrificed and the blood collected at the following time points; 0.5, 2, 4, 6, 16 and 24 h. Plasma samples were analyzed using protein precipitation, followed by solid phase extraction (SPE) and liquid chromatography mass spectrometry (LC-MS).
Pharmacokinetic profiles were determined for various acylated compounds.

Data set [7] is described as follows: Liver weight/body weight of C57BL/6J mice treated for 2 weeks. The settings on record: 5 nmol/kg twice daily s.c. It is filed as in vivo. How it is done: Mice were treated twice daily s.c. with Cpd. 1 and Cpd. 11 (at two doses: 0.5 and 5 nmol/kg) or vehicle for 2 weeks. Throughout the study, body weights were recorded daily and used to administer the body weight-corrected doses of peptide. On the day of sacrifice, the liver was exposed, and weighed.

Numbered stars: 1 amine (or outer) side, 2 acyl side, 3 side chain; on linkers, the order of the positions; unused ones are H or OH. Square brackets hold non-standard residues; d marks the D form. Side chains are listed from the residue outwards. Peptide text beside a SMILES is read from it. * marks the point of attachment. γGlu = O=C(O)[C@H](CCC(=O)[*:2])N[*:1]; Palmitoyl = CCCCCCCCCCCCCCCC(=O)*; Aib = CC(C)(N)C(=O)O

T3 sequence (P47871 26-477): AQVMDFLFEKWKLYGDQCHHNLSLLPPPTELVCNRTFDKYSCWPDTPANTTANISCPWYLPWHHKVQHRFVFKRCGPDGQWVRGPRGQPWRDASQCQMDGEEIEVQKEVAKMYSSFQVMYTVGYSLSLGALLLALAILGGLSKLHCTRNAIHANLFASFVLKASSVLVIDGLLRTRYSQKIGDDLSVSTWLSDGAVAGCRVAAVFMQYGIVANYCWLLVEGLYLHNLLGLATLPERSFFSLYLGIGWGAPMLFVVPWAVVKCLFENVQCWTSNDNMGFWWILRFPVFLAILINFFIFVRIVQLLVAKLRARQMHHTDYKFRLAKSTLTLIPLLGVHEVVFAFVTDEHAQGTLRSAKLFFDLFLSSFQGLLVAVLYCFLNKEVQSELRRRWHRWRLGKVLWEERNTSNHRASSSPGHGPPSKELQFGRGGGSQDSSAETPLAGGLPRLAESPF
T1 sequence (P43220 24-463): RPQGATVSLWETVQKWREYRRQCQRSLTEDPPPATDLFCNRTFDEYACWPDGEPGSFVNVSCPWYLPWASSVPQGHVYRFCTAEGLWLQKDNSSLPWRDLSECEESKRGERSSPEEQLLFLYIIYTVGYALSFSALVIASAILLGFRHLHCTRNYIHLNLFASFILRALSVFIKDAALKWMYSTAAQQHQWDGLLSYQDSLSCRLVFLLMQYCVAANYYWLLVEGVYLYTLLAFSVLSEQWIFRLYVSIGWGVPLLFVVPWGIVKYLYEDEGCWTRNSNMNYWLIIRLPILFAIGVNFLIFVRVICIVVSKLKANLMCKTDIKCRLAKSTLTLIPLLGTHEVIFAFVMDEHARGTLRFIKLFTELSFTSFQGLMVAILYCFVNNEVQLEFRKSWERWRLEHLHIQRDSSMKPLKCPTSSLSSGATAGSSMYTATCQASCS
T2 sequence (P47871 26-477): as the sequence (P47871 26-477) above

`CCCCCCCCCCCCCCCC(=O)NCCCC[C@H](NC(=O)[C@H](CO)NC(=O)[C@H](CC(=O)O)NC(=O)[C@H](CC(C)C)NC(=O)[C@H](Cc1ccc(O)cc1)NC(=O)[C@H](CCCCN)NC(=O)[C@H](CO)NC(=O)[C@H](Cc1ccc(O)cc1)NC(=O)[C@H](CC(=O)O)NC(=O)[C@H](CO)NC(=O)[C@@H](NC(=O)[C@H](Cc1ccccc1)NC(=O)[C@@H](NC(=O)CNC(=O)[C@H](CCC(N)=O)NC(=O)C(C)(C)NC(=O)[C@@H](N)Cc1c[nH]cn1)[C@@H](C)O)[C@@H](C)O)C(=O)N[C@@H](C)C(=O)N[C@@H](C)C(=O)N[C@@H](Cc1c[nH]cn1)C(=O)N[C@@H](CC(=O)O)C(=O)N[C@@H](Cc1ccccc1)C(=O)N[C@H](C(=O)N[C@@H](CCC(=O)O)C(=O)N[C@@H](Cc1c[nH]c2ccccc12)C(=O)N[C@@H](CC(C)C)C(=O)N[C@@H](CC(C)C)C(=O)N[C@@H](CO)C(=O)N[C@@H](C)C(N)=O)C(C)C` [Compound 23] showed a 50% effective concentration (EC50) in data set [1] of 0.14 nM.

As to `CCCCCCCCCCCCCCCC(=O)N[C@@H](CCC(=O)NCCCC[C@H](NC(=O)[C@H](CCC(=O)O)NC(=O)[C@H](CC(=O)O)NC(=O)[C@H](CC(C)C)NC(=O)[C@H](Cc1ccc(O)cc1)NC(=O)[C@H](CCCCN)NC(=O)[C@H](CO)NC(=O)[C@H](Cc1ccc(O)cc1)NC(=O)[C@H](CC(=O)O)NC(=O)[C@H](CO)NC(=O)[C@@H](NC(=O)[C@H](Cc1ccccc1)NC(=O)[C@@H](NC(=O)CNC(=O)[C@H](CCC(N)=O)NC(=O)C(C)(C)NC(=O)[C@@H](N)Cc1c[nH]cn1)[C@@H](C)O)[C@@H](C)O)C(=O)N[C@@H](C)C(=O)N[C@@H](C)C(=O)N[C@@H](Cc1c[nH]cn1)C(=O)N[C@@H](CC(=O)O)C(=O)N[C@@H](Cc1ccccc1)C(=O)N[C@H](C(=O)N[C@@H](CCC(=O)O)C(=O)N[C@@H](Cc1c[nH]c2ccccc12)C(=O)N[C@@H](CC(C)C)C(=O)N[C@@H](CC(C)C)C(=O)N[C@@H](CO)C(=O)N[C@@H](C)C(N)=O)C(C)C)C(=O)O` [Compound 40] (H-H[Aib]QGTFTSDYSKYLDEK([γGlu-Palmitoyl])AAHDFVEWLLSA-NH2), the figures for the EC50 in data set [1] and in data set [2] were 0.2 nM and 0.18 nM, respectively.

`CCCCCCCCCCCCCCCC(=O)N[C@@H](CCC(=O)NCCCC[C@H](NC(=O)[C@H](CO)NC(=O)[C@H](CC(=O)O)NC(=O)[C@H](CC(C)C)NC(=O)[C@H](Cc1ccc(O)cc1)NC(=O)[C@H](CCCCN)NC(=O)[C@H](CO)NC(=O)[C@H](Cc1ccc(O)cc1)NC(=O)[C@H](CC(=O)O)NC(=O)[C@H](CO)NC(=O)[C@@H](NC(=O)[C@H](Cc1ccccc1)NC(=O)[C@@H](NC(=O)CNC(=O)[C@H](CCC(N)=O)NC(=O)C(C)(C)NC(=O)[C@@H](N)Cc1c[nH]cn1)[C@@H](C)O)[C@@H](C)O)C(=O)N[C@@H](C)C(=O)N[C@@H](C)C(=O)N[C@@H](Cc1c[nH]cn1)C(=O)N[C@@H](CC(=O)O)C(=O)N[C@@H](Cc1ccccc1)C(=O)N[C@H](C(=O)N[C@@H](CCC(=O)O)C(=O)N[C@@H](Cc1c[nH]c2ccccc12)C(=O)N[C@@H](CC(C)C)C(=O)N[C@@H](CC(C)C)C(=O)N[C@@H](CCC(=O)O)C(=O)N[C@@H](C)C(N)=O)C(C)C)C(=O)O` [Compound 43] (H-H[Aib]QGTFTSDYSKYLDSK([γGlu-Palmitoyl])AAHDFVEWLLEA-NH2): the concentration for a half-maximal effect (EC50) in data set [2] came to 0.12 nM.

For the molecule `CCCCCCCCCCCCCCCC(=O)N[C@@H](CCC(=O)NCCCC[C@H](NC(=O)[C@H](C)NC(=O)[C@H](C)NC(=O)[C@H](CCC(N)=O)NC(=O)CNC(=O)[C@H](CCC(=O)O)NC(=O)[C@H](CC(C)C)NC(=O)[C@H](Cc1ccc(O)cc1)NC(=O)[C@H](CO)NC(=O)[C@H](CO)NC(=O)[C@@H](NC(=O)[C@H](CC(=O)O)NC(=O)[C@H](CO)NC(=O)[C@@H](NC(=O)[C@H](Cc1ccccc1)NC(=O)[C@@H](NC(=O)CNC(=O)[C@H](CCC(=O)O)NC(=O)[C@H](C)NC(=O)[C@@H](N)Cc1cnc[nH]1)[C@@H](C)O)[C@@H](C)O)C(C)C)C(=O)N[C@@H](CCC(=O)O)C(=O)N[C@@H](Cc1ccccc1)C(=O)N[C@H](C(=O)N[C@@H](C)C(=O)N[C@@H](Cc1c[nH]c2ccccc12)C(=O)N[C@@H](CC(C)C)C(=O)N[C@H](C(=O)N[C@@H](CCCNC(=N)N)C(=O)NCC(=O)N[C@@H](CCCNC(=N)N)C(=O)NCC(=O)O)C(C)C)[C@@H](C)CC)C(=O)O` [Liraglutide], the “GluR EC50 (nM) (1)” value in data set [3] (experiment (1)) is given as “∞”. The “GluR EC50 (nM) (2)” value in data set [3] (experiment (2)) was “∞”. Moreover, the “GluR EC50 (nM) (log avg)” value in data set [3] (log average of (1) and (2)) was “∞”.

Regarding Exendin-4 [reference compound], in data set [4] (0.5 nmol/kg b.i.d. s.c.), the “body weight gain, low dose” value is recorded as “significantly decreased body weight gain at both doses”. For the same molecule, the “body weight gain, high dose” value in data set [4] (5 nmol/kg b.i.d. s.c.) is reported as “significantly decreased body weight gain at both doses”. Also, in data set [5] (high fat diet for 52 weeks), the “food intake, old obese mice” value was “reduced food intake in all time periods”. For the same molecule, in data set [5] (high fat diet for 11 days), the “food intake, young lean mice” value was “reduced food intake during the 0-2, 0-4, 0-8, 0-12 and 0-24 time periods”.

Regarding “H-HSQGTFTSDYSKYLDSKAAHDFVEWLLRA-NH2 [Compound 1]”, the half-life in data set [6] was 13.8 min. In data set [7], the “liver weight/body weight ratio, high dose” value is on record as “significantly increased”.

These data come from patent US10004786B2 (Zealand Pharma A/S, priority 2009, dated 2018).
